# pIC50: −log10 of the molar value.
# Tests used:
# human recombinant HDAC1 = molecular target: T1, human recombinant HDAC1 (Homo sapiens, UniProt Q13547); assay: HDAC1 enzyme activity inhibition assay (in vitro, fluorimetric); format: biochemical; conditions: human recombinant HDAC1, fluorimetric kit, 30° C. 60 minutes
# T1 construct: purchased Enzo Life Science BML-SE456
# Summary of the method: (§1)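 IC50 values derive from fluorescence (Ex 360, Em 460) after developer treatment (30 min) of reactions of recombinant human HDAC1 or HDAC6 with 10 μM Fluor de Lys-SIRT1 substrate (60 min, 30 °C). Compounds were serially diluted 5-fold; 0.3 μg enzyme was used for HDAC1, with HDAC6 tested identically.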
# human recombinant HDAC6 = molecular target: T2, human recombinant HDAC6 (Homo sapiens, UniProt Q9UBN7); assay: HDAC6 enzyme activity inhibition assay (in vitro, fluorimetric); format: biochemical; conditions: for HDAC6 selectivity (fold): HDAC6 selectivity over HDAC1; for pIC50: human recombinant HDAC6, fluorimetric kit, same protocol as HDAC1
# T2 construct: purchased Calbiochem 382180
# T2 sequence (Q9UBN7 1-1215): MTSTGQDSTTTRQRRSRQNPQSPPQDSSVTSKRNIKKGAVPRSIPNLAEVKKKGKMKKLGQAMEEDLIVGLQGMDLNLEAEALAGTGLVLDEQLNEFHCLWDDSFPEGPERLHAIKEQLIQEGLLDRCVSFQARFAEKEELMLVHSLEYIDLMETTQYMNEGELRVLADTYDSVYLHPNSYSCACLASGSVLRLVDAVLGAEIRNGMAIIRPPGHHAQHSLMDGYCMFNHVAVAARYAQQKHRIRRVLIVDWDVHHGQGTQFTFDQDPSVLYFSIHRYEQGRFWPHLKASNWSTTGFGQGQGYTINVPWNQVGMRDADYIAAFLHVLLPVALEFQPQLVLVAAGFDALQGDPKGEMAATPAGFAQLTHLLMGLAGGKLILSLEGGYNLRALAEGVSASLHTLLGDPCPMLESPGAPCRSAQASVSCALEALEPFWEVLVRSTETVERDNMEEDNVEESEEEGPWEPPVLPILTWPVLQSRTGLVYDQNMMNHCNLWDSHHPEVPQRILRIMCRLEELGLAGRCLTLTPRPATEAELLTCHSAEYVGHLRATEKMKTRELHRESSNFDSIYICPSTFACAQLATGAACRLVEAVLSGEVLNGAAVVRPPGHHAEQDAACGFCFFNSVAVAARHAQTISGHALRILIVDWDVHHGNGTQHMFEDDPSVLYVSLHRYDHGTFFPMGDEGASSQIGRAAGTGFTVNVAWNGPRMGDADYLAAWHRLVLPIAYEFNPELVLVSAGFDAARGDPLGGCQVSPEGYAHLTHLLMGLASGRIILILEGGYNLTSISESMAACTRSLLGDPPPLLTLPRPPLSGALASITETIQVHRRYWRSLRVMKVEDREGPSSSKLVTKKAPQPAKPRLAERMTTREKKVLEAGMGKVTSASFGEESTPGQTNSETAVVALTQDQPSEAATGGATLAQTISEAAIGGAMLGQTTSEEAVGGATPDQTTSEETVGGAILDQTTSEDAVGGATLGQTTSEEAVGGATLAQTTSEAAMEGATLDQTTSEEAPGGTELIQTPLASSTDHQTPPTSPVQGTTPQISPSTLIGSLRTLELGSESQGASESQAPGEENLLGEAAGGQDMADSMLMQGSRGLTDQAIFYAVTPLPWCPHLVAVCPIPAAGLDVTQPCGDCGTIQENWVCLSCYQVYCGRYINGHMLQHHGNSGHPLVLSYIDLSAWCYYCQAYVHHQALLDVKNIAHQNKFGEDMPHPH
# Summary of the method: as §1
# T1 sequence (Q13547 whole entry): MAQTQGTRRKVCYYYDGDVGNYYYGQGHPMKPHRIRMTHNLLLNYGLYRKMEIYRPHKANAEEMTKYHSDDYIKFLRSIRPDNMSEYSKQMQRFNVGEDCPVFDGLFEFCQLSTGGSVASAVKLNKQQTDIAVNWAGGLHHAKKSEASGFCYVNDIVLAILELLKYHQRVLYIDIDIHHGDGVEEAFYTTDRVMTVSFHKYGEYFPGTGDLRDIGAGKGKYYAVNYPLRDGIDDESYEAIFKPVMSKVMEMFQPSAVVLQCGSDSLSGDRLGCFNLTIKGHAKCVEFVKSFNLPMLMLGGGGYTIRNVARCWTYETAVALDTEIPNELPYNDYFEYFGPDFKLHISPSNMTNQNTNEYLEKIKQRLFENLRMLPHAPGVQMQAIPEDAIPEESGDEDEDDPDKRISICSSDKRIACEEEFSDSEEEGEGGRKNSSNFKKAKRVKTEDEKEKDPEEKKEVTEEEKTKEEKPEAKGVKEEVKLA
SMILES,pIC50 (human recombinant HDAC1),HDAC6 selectivity (fold) (human recombinant HDAC6),pIC50 (human recombinant HDAC6)
"C[C@@H]1CN(Cc2ccc(C(=O)NO)cc2)C[C@H](C)N1Cc1cccc(CN2CCN(CC(C)(C)O)CC2)c1 [Compound 386, N-hydroxy-4-(((3R,5S)-4-(3-((4-(2-hydroxy-2-methylpropyl)piperazin-1-yl)methyl)benzyl)-3,5-dimethylpiperazin-1-yl)methyl)benzamide]",< 5.00,>77,6.89
"C[C@@H]1CN(Cc2ccc(S(C)(=O)=O)cc2)C[C@H](C)N1Cc1ccc(C(=O)NO)cc1 [Compound 300, 4-(((2S,6R)-2,6-dimethyl-4-(4-(methylsulfonyl)benzyl)piperazin-1-yl)methyl)-N-hydroxybenzamide]",5.43,7,6.28
"C[C@@H]1CN(Cc2ccc(C(=O)NO)cc2)C[C@H](C)N1C(=O)c1cccc(CN2CCN(CC(F)(F)F)CC2)c1 [Compound 443, 4-(((3R,5S)-3,5-dimethyl-4-(3-((4-(2,2,2-trifluoroethyl)piperazin-1-yl)methyl)benzoyl)piperazin-1-yl)methyl)-N-hydroxybenzamide]",5.02,68,6.85
"CCN(CC)C[C@@H](C)NCc1cccc(CN2[C@H](C)CN(Cc3ccc(C(=O)NO)cc3)C[C@@H]2C)c1 [Compound 455, 4-(((3R,5S)-4-(3-(((1-(diethylamino)propan-2-yl)amino)methyl)benzyl)-3,5-dimethylpiperazin-1-yl)methyl)-N-hydroxybenzamide]",5.02,93,6.99
"C[C@@H]1CN(Cc2ccc(C(=O)NO)cc2)C[C@H](C)N1C(=O)Cc1ccccc1 [Compound 146, 4-(((3R,5S)-3,5-dimethyl-4-(2-phenylacetyl)piperazin-1-yl)methyl)-N-hydroxybenzamide]",5.22,314,7.72
"C[C@@H]1CN(C(=O)NCc2ccccc2)C[C@H](C)N1Cc1ccc(C(=O)NO)cc1 [Compound 168, (3R,5S)-N-benzyl-4-(4-(hydroxycarbamoyl)benzyl)-3,5-dimethylpiperazine-1-carboxamide]",5.66,7,6.50
"C[C@@H]1CN(CC(C)(C)F)C[C@H](C)N1Cc1ccc(C(=O)NO)cc1 [Compound 193, 4-(((2S,6R)-4-(2-fluoro-2-methylpropyl)-2,6-dimethylpiperazin-1-yl)methyl)-N-hydroxybenzamide]",4.79,60,6.57
"C[C@@H]1CN(Cc2ccc(C(=O)NO)cc2)C[C@@H](C)N1C(=O)c1ccco1 [Compound 249, 4-(((3R,5R)-4-(furan-2-carbonyl)-3,5-dimethylpiperazin-1-yl)methyl)-N-hydroxybenzamide]",4.81,130,6.92
"CCN1CCN(Cc2cccc(CN3[C@H](C)CN(Cc4ccc(C(=O)NO)cc4)C[C@@H]3C)c2)CC1 [Compound 429, 4-(((3R,5S)-4-(3-((4-ethylpiperazin-1-yl)methyl)benzyl)-3,5-dimethylpiperazin-1-yl)methyl)-N-hydroxybenzamide]",5.36,44,7.00
"C[C@@H]1CN(Cc2ccccc2)C[C@H](C)N1Cc1ccc(/C=C/C(=O)NO)cc1 [Compound 175, (E)-3-(4-(((2S,6R)-4-benzyl-2,6-dimethylpiperazin-1-yl)methyl)phenyl)-N-hydroxyacrylamide]",5.21,90,7.17
"C[C@@H]1CN(Cc2cccc(CN3CCCC3)c2)C[C@H](C)N1Cc1ccc(/C=C/C(=O)NO)cc1 [Compound 475, (E)-3-(4-(((2S,6R)-2,6-dimethyl-4-(3-(pyrrolidin-1-ylmethyl)benzyl)piperazin-1-yl)methyl)phenyl)-N-hydroxyacrylamide]",6.10,7,6.94
"C[C@@H]1CN(Cc2ccc(C(=O)NO)cc2)C[C@H](C)N1Cc1ccc(CN2CC[C@@H](F)C2)cc1 [Compound 411, 4-(((3R,5S)-4-(4-(((R)-3-fluoropyrrolidin-1-yl)methyl)benzyl)-3,5-dimethylpiperazin-1-yl)methyl)-N-hydroxybenzamide]",5.37,538,8.10
"C[C@@H]1CN(C(=O)c2ccccc2-c2cccnc2)C[C@H](C)N1Cc1ccc(C(=O)NO)cc1 [Compound 279, 4-(((2S,6R)-2,6-dimethyl-4-(2-(pyridin-3-yl)benzoyl)piperazin-1-yl)methyl)-N-hydroxybenzamide]",< 5.00,>13,6.11
"C[C@@H]1CN(C(=O)c2ccccc2C2=CCC(C)(C)CC2)C[C@H](C)N1Cc1ccc(C(=O)NO)cc1 [Compound 280, 4-(((2S,6R)-4-(4′,4′-dimethyl-2′,3′,4′,5′-tetrahydro-[1,1′-biphenyl]-2-carbonyl)-2,6-dimethylpiperazin-1-yl)methyl)-N-hydroxybenzamide]",4.75,46,6.41
"CCCCN1[C@H](C)CN(Cc2ccc(C(=O)NO)cc2)C[C@@H]1C [Compound 275, 4-(((3R,5S)-4-butyl-3,5-dimethylpiperazin-1-yl)methyl)-N-hydroxybenzamide]",< 5.00,>21,6.32
"C[C@@H]1CN(C(=O)Cc2cccc(-c3ccccc3)c2)C[C@H](C)N1Cc1ccc(C(=O)NO)cc1 [Compound 250, 4-(((2S,6R)-4-(2-([1,1′-biphenyl]-3-yl)acetyl)-2,6-dimethylpiperazin-1-yl)methyl)-N-hydroxybenzamide]",5.02,57,6.77
"C[C@@H]1CN(Cc2ccc(C(=O)NO)cc2)C[C@H](C)N1C(=O)c1ccccc1C1=CCC(C)(C)CC1 [Compound 288, 4-(((3R,5S)-4-(4′,4′-dimethyl-2′,3′,4′,5′-tetrahydro-[1,1′-biphenyl]-2-carbonyl)-3,5-dimethylpiperazin-1-yl)methyl)-N-hydroxybenzamide]",4.97,33,6.49
"C[C@@H]1CN(Cc2ccc(C(=O)NO)cc2)C[C@H](C)N1Cc1ccccc1-c1ccco1 [Compound 327, 4-(((3R,5S)-4-(2-(furan-2-yl)benzyl)-3,5-dimethylpiperazin-1-yl)methyl)-N-hydroxybenzamide]",< 5.00,>43,6.63
"C[C@@H]1CN(Cc2ccc(CC(=O)NO)cc2)C[C@H](C)N1Cc1ccccc1 [Compound 173, 2-(4-(((3R,5S)-4-benzyl-3,5-dimethylpiperazin-1-yl)methyl)phenyl)-N-hydroxyacetamide]",5.14,85,7.07
"C[C@@H]1CN(Cc2ccc(C(=O)NO)cc2)C[C@H](C)N1C(=O)c1ccccc1 [Compound 083, 4-(((3R,5S)-4-benzoyl-3,5-dimethylpiperazin-1-yl)methyl)-N-hydroxybenzamide]",5.70,201,8.00
"C[C@@H]1CN(Cc2ccc(C(=O)NO)nc2)C[C@H](C)N1Cc1ccccc1 [Compound 812, 5-(((3R,5S)-4-benzyl-3,5-dimethylpiperazin-1-yl)methyl)-N-hydroxypicolinamide]",< 5.00,>6,5.81
"C[C@@H]1CN(Cc2ccc(C(=O)NO)cc2)C[C@H](C)N1Cc1ccccc1-c1cccnc1 [Compound 330, 4-(((3R,5S)-3,5-dimethyl-4-(2-(pyridin-3-yl)benzyl)piperazin-1-yl)methyl)-N-hydroxybenzamide]",4.74,749,7.62
